Source: PMC4849550 (ACS chemical biology, 2016)

Target: Csd4 (Helicobacter pylori, UniProt B5ZAD9)
Experiment: crystal structure at […] Å
Type: biochemical

CC(=O)N[C@H](CCP(=O)(O)CC(CCC[C@@H](N)C(=O)O)C(=O)O)C(=O)O (mixture of isomers) [compound 1, inhibitor 1]
Ki: 1.5 ± 0.3 µM
